Like-named read-outs stand apart in the source and are kept apart here.
How the values were obtained:
[1] = target: T1, recombinant human ghrelin receptor (HEK293/GRLN) (Homo sapiens, UniProt Q92847); assay: Ghrelin inverse agonist potency (EC50) with IP-1 (IP-One HTRF) assay; type: cell-based; settings: inverse agonist potency, IP-1 assay; read-out: EC50 (Activity)
T1 construct: expressed in transfected cells
In short: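 HEK293/GRLN cells were seeded 18-22 hours before the test, then exposed to compound in stimulation buffer for 1 hour at 37° C, 5% CO2. IP-1 was detected by IP-One HTRF (IP1-d2 plus Tb-cryptate, 1 hour RT), reading 620 and 665 nm; the inverse agonist EC50 was derived from this.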

[2] = Metabolic stability in human liver microsomes; type: in vitro ADME
Procedure: (§1) Metabolic Stability Study
(§2) The metabolic stability of compounds in human, dog, rat and mouse liver microsomes was performed according the experimental conditions reported below:
(§3) • a) Prepare the following 5 stock solutions: • 1. Test compound stock solutions: dilute 10 mM solution of dextromethorphan (Dtr) in DMSO, 10 mM solution of diphenhydramine (DPA) in DMSO, 10 mM solution of omeprazole (Ome) in DMSO, 10 mM solution of verapamil (Ver) in DMSO, and 10 mM of an inverse agonist compound in DMSO to 0.25 mM solution each with acetonitrile/water (70/30). • 2. Buffer: 100 mM potassium phosphate Buffer (PBS) at pH 7.4 • 3. Liver microsomes (20 mg/ml): Thaw in 37° C. water bath quickly • 4. 2000 μL: of NADPH regenerating system (1.3 mM). Place this system on ice before use:
(§4) • 5. […] The test compound concentration in the wells, measured by LC-MS/MS, represents the concentration at time=0. • f) To determine the test compound concentration when t≠0, pre-incubate the NADPH regenerating system and the incubation plate containing the remaining 320 μL of incubation mixture (microsomes protein and test compound) for 5 minutes at 37° C. • g) Start the incubation reaction by adding 80 μL NADPH regenerating system to each well containing the remaining 320 μL incubation mixture. • h) After 10 min., 30 min., and 90 min. of incubation at 37° C., transfer 100 μL of the incubation mixture (microsomes protein, test compound, and NADPH) into the wells of a stop plate pre-filled with 300 μL of the cold quench solution. Shake well. • i) Centrifuge the stop plate at 5000×g for 10 minutes. Collect and dilute the supernatant 3 times with distilled water. Sample and analyze the test compound concentration for all the wells by LC-MS/MS. Animal PK Studies via i.v. (intravenous), p.o. (orally) and s.c. (subcutaneous) administrations

[3] = Metabolic stability in mouse liver microsomes; type: in vitro ADME
Procedure: as §1, §2, §3, §4

[4] = target: T2, GHSR-1a (HEK293/GHSR1a cell line) (Homo sapiens, UniProt Q92847); assay: Ghrelin antagonist potency (IC50) with calcium FLIPR assay, ghrelin 10 nM; type: cell-based
T2 construct: expressed in transfected cells; host or cells: HEK293/GHSR1a cell line
T2 sequence (Q92847 whole entry): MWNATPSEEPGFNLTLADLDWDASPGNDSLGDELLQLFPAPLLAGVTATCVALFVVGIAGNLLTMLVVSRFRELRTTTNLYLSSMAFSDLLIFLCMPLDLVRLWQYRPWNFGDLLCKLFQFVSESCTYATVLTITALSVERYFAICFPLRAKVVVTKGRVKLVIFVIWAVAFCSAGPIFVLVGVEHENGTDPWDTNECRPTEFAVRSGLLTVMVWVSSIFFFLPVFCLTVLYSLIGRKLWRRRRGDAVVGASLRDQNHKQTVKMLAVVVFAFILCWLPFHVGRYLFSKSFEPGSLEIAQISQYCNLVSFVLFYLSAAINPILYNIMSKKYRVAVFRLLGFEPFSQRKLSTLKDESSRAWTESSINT
In short: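 Dye preload 30-60 min, RT or 37° C; compound in DMSO. Agonist mode: compound at t=20 sec, Ca2+ read 2 min. Antagonist mode: compound + ghrelin 10 nM at t=20 sec, 2 min read. EC50/IC50 from dose-response curves.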

[5] = ghrelin antagonist potency, read-out: IC50 (Activity)

T1 sequence (Q92847 whole entry): as above

Structure (SMILES) | EC50 [1] | Metabolic Stability Study H = human [2] | Metabolic Stability Study M = mouse [3] | IC50 [4, 5] | IC50 ([4]; HEK293/GHSR1a, ghrelin 10 nM, read-out: Activity IC50 (ghrelin antagonist potency))
CC(NC(=O)N(O)c1ccc(S(=O)(=O)Nc2ccc3c(c2)CNC3)cc1)c1cccc2ccccc12 (centres unmarked) [H1166, 4-(1-hydroxy-3-(1-(naphthalen-1-yl)ethyl)ureido)-N-(isoindolin-5-yl)benzenesulfonamide] | 7.1 nM | 19.9 µL/min/mg | 14.5 µL/min/mg | 9 nM | 
Cc1oc(=O)oc1CN1CCc2cc(NS(=O)(=O)c3ccc(NC(=O)N[C@@H](C)c4cccc(Cl)c4Cl)cc3)ccc2C1 [H1068, (S)-4-(3-(1-(2,3-dichlorophenyl)ethyl)ureido)-N-(2-((5-methyl-2-oxo-1,3-dioxol-4-yl)methyl)-1,2,3,4-tetrahydroisoquinolin-6-yl)benzenesulfonamide] | 8.4 nM | 199.7 µL/min/mg | 196.4 µL/min/mg | 26.3 nM | 
CCN1CCc2cc(NS(=O)(=O)c3ccc(NC(=O)N[C@@H](C)c4ccc(OC)c(Cl)c4Cl)cc3)ccc2C1 [H1018, (S)-4-(3-(1-(2,3-dichloro-4-methoxyphenyl)ethyl)ureido)-N-(2-ethyl-1,2,3,4-tetrahydroisoquinolin-6-yl)benzenesulfonamide] | 13.7 nM | < 10 µL/min/mg | 46.3 µL/min/mg | 99.8 nM | 
C[C@H](NC(=O)Nc1ccc(S(=O)(=O)Nc2ccnc(N)n2)cc1)c1cccc(Cl)c1Cl [H1125, (S)-N-(2-aminopyrimidin-4-yl)-4-(3-(1-(2,3-dichlorophenyl)ethyl)ureido) benzenesulfonamide] | 93.3 nM | 10.7 µL/min/mg | 14.9 µL/min/mg | 893 nM | 
C[C@H](NC(=O)Nc1ccc(S(=O)(=O)Cc2ccc3c(c2)CNC3)cc1)c1cccc(Cl)c1Cl.Cl [H1056, (S)-1-(1-(2,3-dichlorophenyl)ethyl)-3-(4-((isoindolin-5-ylmethyl)sulfonyl)phenyl)urea] | 2.6 nM | 16.4 µL/min/mg | 13.5 µL/min/mg | 5.8 nM | 
CC(NC(=O)Nc1ccc(S(=O)(=O)Nc2ccc3c(c2)CNC3)cc1)c1ccccc1.Cl (centres unmarked) [H1156, N-(isoindolin-5-yl)-4-(3-(1-phenylethyl)ureido) benzenesulfonamide] | 4.26 nM | 18.1 µL/min/mg | 12.9 µL/min/mg | 10.3 nM | 
Cc1oc(=O)oc1CN1CCc2cc(CS(=O)(=O)c3ccc(NC(=O)N[C@@H](C)c4cccc(Cl)c4Cl)cc3)ccc2C1 [H1067, (S)-1-(1-(2,3-dichlorophenyl)ethyl)-3-(4-(((2-((5-methyl-2-oxo-1,3-dioxol-4-yl)methyl)-1,2,3,4-tetrahydroisoquinolin-6-yl)methyl)sulfonyl)phenyl)urea] | 4.5 nM | 326.2 µL/min/mg | 289 µL/min/mg | 14 nM | 
C[C@H](NC(=O)Nc1ccc(S(=O)(=O)Nc2ccc(CC(C)(C)O)cc2)cc1)c1cccc(Cl)c1Cl [H1076, (S)-4-(3-(1-(2,3-dichlorophenyl)ethyl)ureido)-N-(4-(2-hydroxy-2-methylpropyl)phenyl) benzenesulfonamide] | 57.7 nM | 91.4 µL/min/mg | 73.9 µL/min/mg | 515 nM | 
Cl.O=C(NCc1ccccc1)Nc1ccc(S(=O)(=O)Cc2ccc3c(c2)CNC3)cc1 [H1179, 1-benzyl-3-(4-((isoindolin-5-ylmethyl)sulfonyl)phenyl)urea] | 37.4 nM | 14.9 µL/min/mg | < 10 µL/min/mg | 143 nM | 
C[C@H](NC(=O)Nc1ccc(S(=O)(=O)N(C)c2ccc(CC(C)(C)N)cc2)cc1)c1cccc(Cl)c1Cl.Cl [H0971, (S)-N-(4-(2-amino-2-methylpropyl)phenyl)-4-(3-(1-(2,3-dichlorophenyl)ethyl)ureido)-N-methylbenzenesulfonamide] | 135 nM | 31.9 µL/min/mg | 24.8 µL/min/mg | 417 nM | 
CN(C)C(C)(C)Cc1ccc(NS(=O)(=O)c2ccc(NC(=O)NCc3ccccc3)cc2)cc1 [H1009, 4-(3-benzylureido)-N-(4-(2-(dimethylamino)-2-methylpropyl)phenyl) benzenesulfonamide] | 32.8 nM | 13.2 µL/min/mg | 33.8 µL/min/mg | 252 nM | 
C[C@H](NC(=O)Nc1ccc(S(=O)(=O)Nc2ccc(CCO)cc2)cc1)c1cccc(Cl)c1Cl [H1094, (S)-4-(3-(1-(2,3-dichlorophenyl)ethyl)ureido)-N-(4-(2-hydroxyethyl)phenyl) benzenesulfonamide] | 118 nM | 55.1 µL/min/mg | 100.8 µL/min/mg | 488 nM | 
C[C@H](NC(=O)Nc1ccc(S(=O)(=O)Nc2cnc(N)nc2)cc1)c1cccc(Cl)c1Cl [H1108] | 117 nM | 38.7 µL/min/mg | 47.5 µL/min/mg | 422 nM | 
CCC(NC(=O)Nc1ccc(S(=O)(=O)Cc2ccc3c(c2)CN(C)C3)cc1)c1ccccc1 (centres unmarked) [H1235, 1-(4-(((2-methylisoindolin-5-yl)methyl)sulfonyl)phenyl)-3-(1-phenylpropyl)urea] | 6.1 nM | 102.4 µL/min/mg | 87.1 µL/min/mg | 32 nM | 
CN1Cc2ccc(CS(=O)(=O)c3ccc(NC(=O)NC(c4ccccc4)C(F)(F)F)cc3)cc2C1 (centres unmarked) [H1227, 1-(4-(((2-methylisoindolin-5-yl)methyl)sulfonyl)phenyl)-3-(2,2,2-trifluoro-1-phenylethyl)urea] | 175 nM | 99.4 µL/min/mg | 79.9 µL/min/mg | 38.4 nM | 
CCN1Cc2ccc(C(C)S(=O)(=O)c3ccc(NC(=O)NC(C)c4ccccc4)cc3)cc2C1 (centres unmarked) [H1234, 1-(4-((1-(2-ethylisoindolin-5-yl)ethyl)sulfonyl)phenyl)-3-(1-phenylethyl)urea] | 15.4 nM | 149.8 µL/min/mg | 122.7 µL/min/mg | 42.6 nM | 
CCN1Cc2ccc(CS(=O)(=O)c3ccc(NC(=O)NC(C)c4ccccc4)cc3)cc2C1 (centres unmarked) [H1221, 1-(4-(((2-ethylisoindolin-5-yl)methyl)sulfonyl)phenyl)-3-(1-phenylethyl)urea] | 38.7 nM | 111.2 µL/min/mg | 107.7 µL/min/mg | 8.1 nM | 
O=C(NCc1ccccc1)Nc1ccc2c(c1)CC(c1ccc3c(c1)CNC3)S2(=O)=O (centres unmarked) [H1271, 1-benzyl-3-(2-(isoindolin-5-yl)-1,1-dioxido-2,3-dihydrobenzo[b]thiophen-5-yl)urea] |  | H < 10 M < 10 R = not reported D = not reported μL/min/mg | H < 10 M < 10 R = not reported D = not reported μL/min/mg |  | 5 nM

Reference: patent US10501479B2, “Benzenesulfonyl-asymmetric ureas and medical uses thereof” (HELSINN HEALTHCARE SA, priority 2016, dated 2019)
